Results reported in US8754119B2, “Use of rotigotine for the treatment of depression” (priority 2003, dated 2014).
Entries after “also recorded” stand apart in the source; their conditions may differ.

How the values were obtained:
a2 receptors [1] = experiment: functional action on a2 receptors; format: biochemical
rats = experiment: forced swim test; format: in vivo; conditions: subcutaneously applied
From the text: The “forced swim test” is an animal model, in which depressive episodes are triggered by acute stress. In this case, rats are forced to swim in a limited space. After initial attempts to save themselves, in which the animals grasp the hopelessness, they lapse into immobility. On repetition of the experiment, the animals remain immobile from the beginning of the experiment. In the event of pre-treatment with antidepressants, the period of immobility is shortened during the repetition experiment; the animals generally start searching and escape movements directly after transfer into the water basin (Porsolt, Biomedicine 30, 1979, 139).

5HT1A receptor [2] = biological target: T1, 5HT1A receptor (Homo sapiens, UniProt P08908); experiment: functional activity on 5HT1A receptors; format: biochemical
T1 sequence (P08908 1-422): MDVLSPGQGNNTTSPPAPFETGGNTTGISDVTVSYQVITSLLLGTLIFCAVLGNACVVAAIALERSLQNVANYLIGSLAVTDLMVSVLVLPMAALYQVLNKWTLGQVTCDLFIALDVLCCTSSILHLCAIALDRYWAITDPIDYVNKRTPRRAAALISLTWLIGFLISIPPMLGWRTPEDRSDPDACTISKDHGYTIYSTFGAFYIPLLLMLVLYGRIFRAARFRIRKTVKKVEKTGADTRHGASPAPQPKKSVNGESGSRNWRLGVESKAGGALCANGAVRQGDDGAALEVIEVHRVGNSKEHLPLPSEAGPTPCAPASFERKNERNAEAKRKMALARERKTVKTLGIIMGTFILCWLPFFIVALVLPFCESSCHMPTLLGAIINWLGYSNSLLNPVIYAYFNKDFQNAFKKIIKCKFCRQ

a2 receptors [3] = experiment: binding to a2 receptors
Sprague-Dawley rats = experiment: bulbectomy study (olfactory bulb removed, locomotor activity); format: in vivo
Description: In a further animal model (Embodiment 3) an investigation was made as to whether the antidepressive effects of rotigotine can be distinguished from a general motor stimulation. In this case, rotigotine was administered to rats, whose olfactory bulb had been removed on both sides. The removal of the olfactory bulb leads in the untreated control group to an adaptive hyperactivity. It is known from the literature that chronically administered antidepressants lead to a reduction in movement activity of the animals in this model, while stimulants further increase the motor activity (van Riezen H et al., Br. J. Pharmacol. 60(4), 1977, 521; Kelly J P et al., Pharmacol. Ther. 74(3), 1997, 299). Therefore, it is possible to discriminate between antidepressive and non-specific stimulatory effects of an active ingredient with this model. […] The bulbectomy study was carried out on Sprague-Dawley rats. A group, which had seemingly been operated on, served as a control group and was operated on without the olfactory bulb being removed. 14 days after the operation, the rats were treated with excipients, rotigotine depot suspension (every second day) or imipramine. On test days, the rats were taken onto a test field and left to themselves for 3 minutes. The locomotor activities of the animals were measured here with the aid of the number of lines crossed.

5HT1A receptor [4] = biological target: T1, 5HT1A receptor; experiment: binding to 5HT1A receptor

Q: `CCCN(CCc1cccs1)C1CCc2c(O)cccc2C1` (single isomer, unassigned; (-)) [rotigotine, (−)-5,6,7,8-tetrahydro-6-[propyl[2-(2-thienyl)ethyl]amino]-1-naphthol] was tested. Which “mode of action on a2 receptors” value (a2 receptors [1]) did it give?
A: The value was “acts antagonistically”.

Q: What about the period of immobility (rats) of the same molecule?
A: The period of immobility was “clear reduction in the immobility period”.

Q: And the period of immobility (rats; listed as Rotigotine)?
A: Its period of immobility is “significantly shortened period of immobility”.

Q: What about the “mode of action on 5HT1A receptors” value (5HT1A receptor [2]) of the same molecule?
A: The value was “agonistic activity”.

Q: And the “binding to a2 receptors” value (a2 receptors [3])?
A: Its value is “binds”.

Q: And the bulbectomy-induced locomotor hyperactivity (Sprague-Dawley rats; bulbectomised rats, low doses)?
A: The bulbectomy-induced locomotor hyperactivity was “virtually complete suppression of the bulbectomy-induced locomotor hyperactivity; also recorded: significantly reduces the motor hyperactivity”.

Q: And the locomotor activity (Sprague-Dawley rats; higher doses, bulbectomised and control animals)?
A: Its locomotor activity is “stimulatory dopamine-agonistic effect predominates; also recorded: non-specific activation of the locomotor activity dominates”.

Q: What about the “binding to the 5HT1A receptor” value (5HT1A receptor [4]) of the same molecule?
A: The value was “binds”.
